Data on 46 molecules can be found in patent US20090227607A1, “DEAZAPURINES USEFUL AS INHIBITORS OF JANUS KINASES” (priority 2006, published 2009).

Broadly, the Ki is a dissociation constant, usually derived from enzyme kinetics or from competition with a known ligand.

The target of one test is JAK-2 enzyme (Homo sapiens, UniProt O60674). As to the kind of experiment: JAK2 Inhibition Assay. To be noted: 15 μM poly(Glu)4Tyr, 12 μM ATP, 25° C. The class given is biochemical. On the procedure:
(§1) Compounds were screened for their ability to inhibit JAK3 using the assay shown below. Reactions were carried out in a kinase buffer containing 100 mM HEPES (pH 7.4), 1 mM DTT, 10 mM MgCl2, 25 mM NaCl, and 0.01% BSA. Substrate concentrations in the assay were 5 μM ATP (200 uCi/μmole ATP) and 1 μM poly(Glu)4Tyr. Reactions were carried out at 25° C. and 1 nM JAK3.
(§2) To each well of a 96 well polycarbonate plate was added 1.5 μl of a candidate JAK3 inhibitor along with 50 μl of kinase buffer containing 2 μM poly(Glu)4Tyr and […]. This was then mixed and […] of kinase buffer containing 2 nM JAK3 enzyme was added to start the reaction. After 20 minutes at room temperature (25° C.), the reaction was stopped with 50 μl of 20% trichloroacetic acid (TCA) that also contained 0.4 mM ATP. The entire contents of each well were then transferred to a 96 well glass fiber filter plate using a TomTek Cell Harvester. After washing, 60 μl of scintillation fluid was added and ^33P incorporation detected on a Perkin Elmer TopCount.
The assays were as described above in Example 36 except that JAK-2 enzyme was used, the final poly(Glu)4Tyr concentration was 15 μM, and final ATP concentration was 12 μM.
(§3) Tables 5 and 6 depict enzyme inhibition data (Ki) for certain exemplary compounds. Compound numbers in Tables 5 and 6 correspond to those compounds depicted in Tables 1 and 2, respectively.

Another test concerns the target T1, JAK3 (Homo sapiens, UniProt P52333).
T1 sequence (P52333 1-1124): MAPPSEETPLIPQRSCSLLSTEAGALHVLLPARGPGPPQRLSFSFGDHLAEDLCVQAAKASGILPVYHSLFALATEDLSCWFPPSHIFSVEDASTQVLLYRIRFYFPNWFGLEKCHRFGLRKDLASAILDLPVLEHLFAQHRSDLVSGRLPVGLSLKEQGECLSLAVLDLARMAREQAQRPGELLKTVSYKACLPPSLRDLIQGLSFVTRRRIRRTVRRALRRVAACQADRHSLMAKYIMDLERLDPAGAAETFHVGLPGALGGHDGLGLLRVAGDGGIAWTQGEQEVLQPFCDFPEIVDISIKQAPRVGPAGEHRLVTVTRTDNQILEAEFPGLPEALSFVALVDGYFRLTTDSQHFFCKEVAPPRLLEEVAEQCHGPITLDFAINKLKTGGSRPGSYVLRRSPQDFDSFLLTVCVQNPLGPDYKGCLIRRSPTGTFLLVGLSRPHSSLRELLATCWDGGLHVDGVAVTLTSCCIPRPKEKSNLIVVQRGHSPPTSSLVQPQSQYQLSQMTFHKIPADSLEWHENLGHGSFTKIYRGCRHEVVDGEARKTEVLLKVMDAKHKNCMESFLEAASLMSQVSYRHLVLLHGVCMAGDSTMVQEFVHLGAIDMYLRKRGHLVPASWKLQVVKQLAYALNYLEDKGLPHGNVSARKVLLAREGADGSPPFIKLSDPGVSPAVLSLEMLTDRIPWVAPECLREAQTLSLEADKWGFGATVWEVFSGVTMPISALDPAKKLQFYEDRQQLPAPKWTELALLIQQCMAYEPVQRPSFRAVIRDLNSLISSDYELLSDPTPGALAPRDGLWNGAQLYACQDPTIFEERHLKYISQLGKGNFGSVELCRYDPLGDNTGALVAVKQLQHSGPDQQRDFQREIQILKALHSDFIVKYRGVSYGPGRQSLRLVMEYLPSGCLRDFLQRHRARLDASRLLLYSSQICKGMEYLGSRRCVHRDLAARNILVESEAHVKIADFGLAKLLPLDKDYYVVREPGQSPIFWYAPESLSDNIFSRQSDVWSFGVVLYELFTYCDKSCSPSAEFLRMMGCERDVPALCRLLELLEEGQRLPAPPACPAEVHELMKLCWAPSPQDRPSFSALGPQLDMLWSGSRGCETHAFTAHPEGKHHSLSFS
As to the kind of experiment: JAK3 Inhibition Assay. The test is classed as biochemical. To be noted: 1 μM poly(Glu)4Tyr, 5 μM ATP, 1 nM JAK3, 25° C.; read-out: JAK3 enzyme inhibition data (Ki). On the procedure: as §1, §2, §3

Chain of JAK-2 enzyme (O60674 whole entry, species assumed): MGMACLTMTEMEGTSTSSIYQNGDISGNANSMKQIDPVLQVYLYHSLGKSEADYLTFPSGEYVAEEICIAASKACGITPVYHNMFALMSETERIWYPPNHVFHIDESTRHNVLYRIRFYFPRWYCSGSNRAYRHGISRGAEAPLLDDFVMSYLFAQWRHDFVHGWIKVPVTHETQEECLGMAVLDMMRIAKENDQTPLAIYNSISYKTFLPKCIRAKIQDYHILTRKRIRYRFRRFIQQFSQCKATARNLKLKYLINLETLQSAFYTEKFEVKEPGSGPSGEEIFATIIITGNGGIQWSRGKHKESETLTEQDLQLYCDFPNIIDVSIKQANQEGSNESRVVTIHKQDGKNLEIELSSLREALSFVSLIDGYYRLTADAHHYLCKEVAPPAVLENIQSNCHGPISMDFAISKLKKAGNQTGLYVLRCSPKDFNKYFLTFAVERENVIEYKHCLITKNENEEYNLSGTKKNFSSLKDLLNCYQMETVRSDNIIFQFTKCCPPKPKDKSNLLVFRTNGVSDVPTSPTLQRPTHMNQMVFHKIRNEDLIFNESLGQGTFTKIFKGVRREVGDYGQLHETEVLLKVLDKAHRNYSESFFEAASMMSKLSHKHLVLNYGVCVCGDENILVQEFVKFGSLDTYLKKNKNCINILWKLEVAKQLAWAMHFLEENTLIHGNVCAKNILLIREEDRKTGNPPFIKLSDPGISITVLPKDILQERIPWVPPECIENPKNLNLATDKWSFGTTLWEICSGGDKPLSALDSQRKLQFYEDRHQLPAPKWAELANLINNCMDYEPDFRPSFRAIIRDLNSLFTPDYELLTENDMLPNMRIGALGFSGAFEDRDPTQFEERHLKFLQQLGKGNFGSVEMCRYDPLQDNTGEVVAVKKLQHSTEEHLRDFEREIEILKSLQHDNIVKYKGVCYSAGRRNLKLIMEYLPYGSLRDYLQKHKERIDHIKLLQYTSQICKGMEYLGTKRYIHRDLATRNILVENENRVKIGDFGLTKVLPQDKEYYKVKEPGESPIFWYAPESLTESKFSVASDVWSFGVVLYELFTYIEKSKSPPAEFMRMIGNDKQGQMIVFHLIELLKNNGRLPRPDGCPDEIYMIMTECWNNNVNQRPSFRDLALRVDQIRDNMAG

As for `CCN(Cc1ccncc1)C(=O)c1cc(-c2ncnc3[nH]ccc23)c[nH]1` [Compound 48], the Ki at JAK-2 enzyme and at JAK3 was under 100 nM each time.

Turning to `CN(Cc1cccnc1)C(=O)c1cc(-c2ncnc3[nH]ccc23)c[nH]1` [Compound 49], the Ki was under 100 nM on JAK-2 enzyme and 100 to 500 nM on JAK3.

As for `CN(C)C1CCN(C(=O)c2cc(-c3ncnc4[nH]ccc34)c[nH]2)C1` (centres unmarked) [Compound 50], the Ki at JAK-2 enzyme and at JAK3 was 500 to 5000 nM each time.

Take `O=C(c1cc(-c2ncnc3[nH]ccc23)c[nH]1)N1CCCC(O)C1` (centres unmarked) [Compound 51]: the Ki at JAK-2 enzyme lay in the range of 100 to 500 nM; at JAK3, 500 to 5000 nM.

In the case of `N#CC1CCCN1C(=O)c1cc(-c2ncnc3[nH]ccc23)c[nH]1` (centres unmarked) [Compound 52], the results for the Ki on JAK-2 enzyme and on JAK3 were under 100 nM and 100 to 500 nM, respectively.

As to `O=C(c1cc(-c2ncnc3[nH]ccc23)c[nH]1)N1CCCC1C(F)(F)F` (centres unmarked) [Compound 53], the Ki at JAK-2 enzyme is under 100 nM; on JAK3 it was 100 to 500 nM.

`CC1CCC(C)N1C(=O)c1cc(-c2ncnc3[nH]ccc23)c[nH]1` (centres unmarked) [Compound 54]: the Ki on JAK-2 enzyme and at JAK3 was under 100 nM each time.

For `CN(CC(F)(F)F)C(=O)c1cc(-c2ncnc3[nH]ccc23)c[nH]1` [Compound 55], the Ki on JAK-2 enzyme is under 100 nM; at JAK3, 100 to 500 nM.

With `O=C(c1cc(-c2ncnc3[nH]ccc23)c[nH]1)N1CCC(O)C1` (centres unmarked) [Compound 56], the Ki fell in the range of 100 to 500 nM on JAK-2 enzyme and 500 to 5000 nM on JAK3.

For the molecule `O=C(Nc1nc(-c2ncnc3[nH]ccc23)cs1)C1CCC1` [Compound 57], the Ki at JAK-2 enzyme and at JAK3 was under 100 nM each time.

As to `CC1CC1C(=O)Nc1nc(-c2ncnc3[nH]ccc23)cs1` (centres unmarked) [Compound 58], the Ki at JAK-2 enzyme and on JAK3 was under 100 nM in each case.

Turning to `O=C(Nc1nc(-c2ncnc3[nH]ccc23)cs1)C1CC=CC1` [Compound 59], the Ki at JAK-2 enzyme and at JAK3 was under 100 nM in each case.

Regarding `O=C(Nc1nc(-c2ncnc3[nH]ccc23)cs1)C1CCCC1O` (centres unmarked) [Compound 60], the Ki on JAK-2 enzyme and on JAK3 was under 100 nM in each case.

For `O=C(Nc1nc(-c2ncnc3[nH]ccc23)cs1)C1CCOCC1` [Compound 61], the Ki at JAK-2 enzyme and at JAK3 was under 100 nM each time.

On to `CC1CCC(C(=O)Nc2nc(-c3ncnc4[nH]ccc34)cs2)CC1` (centres unmarked) [Compound 62], for which the figures for the Ki on JAK-2 enzyme and on JAK3 were under 100 nM and 100 to 500 nM, respectively.

Turning to `COC1CCCC(C(=O)Nc2nc(-c3ncnc4[nH]ccc34)cs2)C1` (centres unmarked) [Compound 63], the Ki on JAK-2 enzyme is under 100 nM; at JAK3, 100 to 500 nM.

Regarding `O=C(CC(F)(F)F)Nc1nc(-c2ncnc3[nH]ccc23)cs1` [Compound 64], the Ki at JAK-2 enzyme and at JAK3 was under 100 nM each time.

As for `O=C1CCC(C(=O)Nc2nc(-c3ncnc4[nH]ccc34)cs2)CC1` [Compound 65], the Ki on JAK-2 enzyme and at JAK3 was under 100 nM in each case.

Turning to `CC(C)(C)CC(=O)Nc1nc(-c2ncnc3[nH]ccc23)cs1` [Compound 66], the Ki on JAK-2 enzyme and on JAK3 was under 100 nM in each case.

For `O=C(CCC1CCCC1)Nc1nc(-c2ncnc3[nH]ccc23)cs1` [Compound 67], the Ki on JAK-2 enzyme and at JAK3 was under 100 nM each time.

In the case of `O=C(CCc1ccccc1)Nc1nc(-c2ncnc3[nH]ccc23)cs1` [Compound 68], the Ki at JAK-2 enzyme and at JAK3 was under 100 nM in each case.

Consider `C=CCCC(=O)Nc1nc(-c2ncnc3[nH]ccc23)cs1` [Compound 69], for which the Ki on JAK-2 enzyme and on JAK3 was under 100 nM throughout.

For the molecule `O=C(CC1CC1)Nc1nc(-c2ncnc3[nH]ccc23)cs1` [Compound 70], the Ki at JAK-2 enzyme and at JAK3 was under 100 nM each time.

In the case of `CC(=O)CCC(=O)Nc1nc(-c2ncnc3[nH]ccc23)cs1` [Compound 71], the inhibition constant (Ki) was under 100 nM on JAK-2 enzyme and 100 to 500 nM at JAK3.

For the molecule `CC(C)CCC(=O)Nc1nc(-c2ncnc3[nH]ccc23)cs1` [Compound 72], the Ki at JAK-2 enzyme and on JAK3 was under 100 nM throughout.

As to `CC(C(=O)NC1CC1)n1cc(-c2ncnc3[nH]ccc23)cn1` (centres unmarked) [Compound 73], the Ki on JAK-2 enzyme and on JAK3 was 100 to 500 nM throughout.

On to `CC(C)CNC(=O)C(C)n1cc(-c2ncnc3[nH]ccc23)cn1` (centres unmarked) [Compound 74], for which the Ki is 100 to 500 nM at JAK-2 enzyme and under 100 nM at JAK3.

Take `CC(C(=O)NC1CCCC1)n1cc(-c2ncnc3[nH]ccc23)cn1` (centres unmarked) [Compound 75]: the Ki was 100 to 500 nM at JAK-2 enzyme and under 100 nM on JAK3.

For the molecule `CC(C(=O)NCC1CCCO1)n1cc(-c2ncnc3[nH]ccc23)cn1` (centres unmarked) [Compound 76], the Ki on JAK-2 enzyme and at JAK3 was 500 to 5000 nM throughout.

Take `CC(C(=O)N(C)C)n1cc(-c2ncnc3[nH]ccc23)cn1` (centres unmarked) [Compound 77]: the inhibitory constant (Ki) on JAK-2 enzyme lay in the range of 100 to 500 nM; at JAK3, 500 to 5000 nM.

With `CC(C)NC(=O)C(C)n1cc(-c2ncnc3[nH]ccc23)cn1` (centres unmarked) [Compound 78], the Ki at JAK-2 enzyme and at JAK3 was 100 to 500 nM throughout.

In the case of `CC(CO)NC(=O)C(C)n1cc(-c2ncnc3[nH]ccc23)cn1` (centres unmarked) [Compound 79], the Ki was 500 to 5000 nM at JAK-2 enzyme and 100 to 500 nM at JAK3.

On to `CC(O)CNC(=O)C(C)n1cc(-c2ncnc3[nH]ccc23)cn1` (centres unmarked) [Compound 80], for which the Ki fell in the range of 500 to 5000 nM at JAK-2 enzyme and 100 to 500 nM at JAK3.

In the case of `COCCNC(=O)C(C)n1cc(-c2ncnc3[nH]ccc23)cn1` (centres unmarked) [Compound 81], the Ki on JAK-2 enzyme and at JAK3 was 500 to 5000 nM in each case.

With `CCC(CO)NC(=O)C(C)n1cc(-c2ncnc3[nH]ccc23)cn1` (centres unmarked) [Compound 82], the Ki on JAK-2 enzyme and at JAK3 was 100 to 500 nM throughout.

As for `CCC(O)CNC(=O)C(C)n1cc(-c2ncnc3[nH]ccc23)cn1` (centres unmarked) [Compound 83], the values for the Ki on JAK-2 enzyme and on JAK3 were 500 to 5000 nM and 100 to 500 nM, respectively.

Take `CSCCNC(=O)C(C)n1cc(-c2ncnc3[nH]ccc23)cn1` (centres unmarked) [Compound 84]: the Ki on JAK-2 enzyme and on JAK3 was 100 to 500 nM each time.

`CC(C)OCCNC(=O)C(C)n1cc(-c2ncnc3[nH]ccc23)cn1` (centres unmarked) [Compound 85]: the Ki on JAK-2 enzyme and on JAK3 was 500 to 5000 nM in each case.

Turning to `CC(C(=O)NCc1ccccc1)n1cc(-c2ncnc3[nH]ccc23)cn1` (centres unmarked) [Compound 86], the Ki on JAK-2 enzyme and on JAK3 was 100 to 500 nM each time.

For the molecule `CC(C(=O)N1CCCC1)n1cc(-c2ncnc3[nH]ccc23)cn1` (centres unmarked) [Compound 87], the Ki on JAK-2 enzyme and on JAK3 was 100 to 500 nM in each case.

As for `CCN(CC)C(=O)C(C)n1cc(-c2ncnc3[nH]ccc23)cn1` (centres unmarked) [Compound 88], the values for the Ki on JAK-2 enzyme and on JAK3 were 100 to 500 nM and under 100 nM, respectively.

For `CC(C(=O)NCc1cccn1C)n1cc(-c2ncnc3[nH]ccc23)cn1` (centres unmarked) [Compound 89], the Ki on JAK-2 enzyme is under 100 nM; at JAK3 it was 100 to 500 nM.

On to `CCCNC(=O)C(C)n1cc(-c2ncnc3[nH]ccc23)cn1` (centres unmarked) [Compound 90], for which the inhibition constant (Ki) at JAK-2 enzyme was 100 to 500 nM; on JAK3 it was under 100 nM.

Take `CC(C(=O)NCC(F)(F)F)n1cc(-c2ncnc3[nH]ccc23)cn1` (centres unmarked) [Compound 91]: the Ki on JAK-2 enzyme and at JAK3 was under 100 nM each time.

Turning to `CCCCC(CC)n1cc(-c2ncnc3[nH]ccc23)cn1` (centres unmarked) [Compound 92], the Ki on JAK-2 enzyme and on JAK3 was under 100 nM throughout.

For `CCCCC(C)n1cc(-c2ncnc3[nH]ccc23)cn1` (centres unmarked) [Compound 93], the Ki on JAK-2 enzyme and at JAK3 was under 100 nM each time.
